The target of the assay is human recombinant H-PGDS (Homo sapiens, UniProt O60760). The assay can be described thus: Slightly modified fluorescence intensity h-PGDS TBA enzyme assay (1:40,000 enzyme, 40 second reaction, 1/2 log dilutions, top concentration typically 10 μM). The following applies: slightly modified assay: 1:40,000 human recombinant H-PGDS. In kind it is biochemical. In a few lines:
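Enzyme pre-incubated 10 min at room temperature with inhibitor in 100 mM Trizma pH 8.0, 100 μM MgCl2, 0.1 mg/ml rabbit IgG, 2.5 mM glutathione, 0.5% DMSO; reaction started with 5.0 μM PGH2 and stopped with FeCl2/citric acid. Remaining PGH2 quantified as MDA–TBA fluorescence (ex 530/em 560 nm); IC50 from 4-parameter fit, 11 concentrations in duplicate.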

Chain of human recombinant H-PGDS (O60760 whole entry): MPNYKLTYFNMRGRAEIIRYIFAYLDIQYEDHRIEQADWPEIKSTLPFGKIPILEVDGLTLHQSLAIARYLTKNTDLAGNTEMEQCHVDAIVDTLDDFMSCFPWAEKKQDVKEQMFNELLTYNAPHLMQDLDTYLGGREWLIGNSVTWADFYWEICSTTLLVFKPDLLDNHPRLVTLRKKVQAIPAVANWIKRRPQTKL

In the case of `O=C(N[C@H]1CCC[C@@H](C(=O)NCCN2CCCCC2)C1)c1ccc(-c2cccc(F)c2)nc1` (relative stereo) [Example 64I, 6-(3-fluorophenyl)-N-{cis-3-[(2-piperidin-1-ylethyl)carbamoyl]cyclohexyl}nicotinamide], the IC50 (in general, the concentration that inhibits the measured activity by half) turned out to be 11.1 nM.
Regarding `COCCN(C)C1CCC(NC(=O)c2ccc(-c3cccc(F)c3)nc2)CC1` (single isomer, unassigned) [Example 59, 6-(3-Fluorophenyl)-N-{4-[(2-methoxyethyl)(methyl)amino]cyclohexyl}nicotinamide], the IC50 was determined as 30.5 nM.
With `O=C(NC1CC1)c1ccc(-c2cccc(F)c2)nc1` [Example 6, N-Cyclopropyl-6-(3-fluoro-phenyl)-nicotinamide] the figure was 159 nM.
For `CN(C)C(=O)[C@H]1CC[C@H](NC(=O)c2ccc(-c3cccc(F)c3)nc2)CC1` [Example 92, N-[trans-4-(Dimethylcarbamoyl)cyclohexyl]-6-(3-fluorophenyl)nicotinamide] the value was 2.71 nM; for `CC(=O)NC1CCC(NC(=O)c2ccc(-c3cccc(F)c3)nc2)CC1` (stereo not shown) [Example 46, N-(4-Acetamidocyclohexyl)-6-(3-fluorophenyl)nicotinamide], 10.7 nM.
Consider `CCN1CCC(CNC(=O)[C@@H]2CCC[C@H](NC(=O)c3ccc(-c4cccc(F)c4)nc3)C2)C1` (relative stereo) [Example 64J, N-[cis-3-{[(1-ethylpyrrolidin-3-yl)methyl]carbamoyl}cyclohexyl]-6-(3-fluorophenyl)nicotinamide], for which the IC50 amounted to 19.6 nM.
Regarding `CCN(C)C(=O)[C@H]1CC[C@@H](NC(=O)c2ccc(-c3cccc(F)c3)nc2)CC1` [Example 77, N-{cis-4-[Ethyl(methyl)carbamoyl]cyclohexyl}-6-(3-fluorophenyl)nicotinamide], the half-maximal inhibitory concentration (IC50) came out at 6.42 nM.
Take `O=C(NC1CCC(N2CC[C@@H](O)C2)CC1)c1ccc(-c2cccc(F)c2)nc1` (single isomer, unassigned) [Example 60]: the 50% inhibitory concentration (IC50) is 111 nM.
`O=C(NC1CCC(N2CCOCC2)CC1)c1ccc(-c2cccc(F)c2)nc1` (single isomer, unassigned) [Example 50, 6-(3-Fluorophenyl)-N-(4-morpholin-4-ylcyclohexyl)nicotinamide]: the concentration for half-maximal inhibition (IC50) was determined as 5.76 nM.
As to `O=C(NC1CCC(NC2CCOC2)CC1)c1ccc(-c2cccc(F)c2)nc1` (single isomer, unassigned) [Example 57, 6-(3-Fluorophenyl)-N-[-4-(tetrahydrofuran-3-ylamino)cyclohexyl]nicotinamide], the IC50 is 32 nM.
In the case of `O=C(N[C@H]1CC[C@@H](C(=O)N2CCOCC2)CC1)c1ccc(-c2cccc(F)c2)nc1` [Example 73, 6-(3-Fluorophenyl)-N-[cis-4-(morpholin-4-ylcarbonyl)cyclohexyl]nicotinamide], the IC50 amounted to 14 nM.
For `CC(C)c1nccn1[C@H]1CC[C@H](NC(=O)c2ccc(-c3cccc(F)c3)nc2)CC1` [Example 106, 6-(3-Fluorophenyl)-N-[trans-4-(2-isopropyl-1H-imidazol-1-yl)cyclohexyl]nicotinamide] the value was 14.2 nM; for `NC1CCC(NC(=O)c2ccc(-c3cccc(F)c3)nc2)CC1` (stereo not shown) [Example 44, N-(4-Aminocyclohexyl)-6-(3-fluorophenyl)nicotinamide], 67.5 nM; for `CN1CCN(C2CCC(NC(=O)c3ccc(-c4cccc(F)c4)nc3)CC2)CC1` (single isomer, unassigned) [Example 51, 6-(3-Fluorophenyl)-N-[-4-(4-methylpiperazin-1-yl)cyclohexyl]nicotinamide], 172 nM.
Take `N[C@H]1CCCC[C@H]1NC(=O)[C@@H]1CCC[C@H](NC(=O)c2ccc(-c3cccc(F)c3)nc2)C1` (mixture of isomers) [Example 64L, N-[(1S,3R)-3-{[cis-2-aminocyclohexyl]carbamoyl}cyclohexyl]-6-(3-fluorophenyl)nicotinamide]: the IC50 is 255 nM.
With `N[C@@H]1CCN(C(=O)[C@H]2CC[C@H](NC(=O)c3ccc(-c4cccc(F)c4)nc3)CC2)C1` [Example 99, N-(trans-4-{[(3R)-3-Aminopyrrolidin-1-yl]carbonyl}cyclohexyl)-6-(3-fluorophenyl)nicotinamide] the figure was 11.2 nM.
